In PubChem BioAssay AID588655 (The Scripps Research Institute Molecular Screening Center, 2011):

Key:
[1] = test system: HT29 cells, phospho-ERK1/2 western blot, 24 h; test: altered phosphorylated MAPK1 amounts in cells – HT29 cells, chemiluminescent western blot, powder samples, counter-screen for KLF5 inhibitor project, late-stage follow-up (AID 588655); conditions: measured here: phospho-ERK fold change vs DMSO; at 10 µM
[2] = biological target: Mitogen-activated protein kinase 1 (Homo sapiens) (UniProt P28482); test: as above; conditions: HT29 cells, phospho-ERK1/2 western blot, 24 h; at 10 µM; stronger effect = higher value
Mitogen-activated protein kinase 1 (Homo sapiens), sequence (P28482 whole entry, looked up): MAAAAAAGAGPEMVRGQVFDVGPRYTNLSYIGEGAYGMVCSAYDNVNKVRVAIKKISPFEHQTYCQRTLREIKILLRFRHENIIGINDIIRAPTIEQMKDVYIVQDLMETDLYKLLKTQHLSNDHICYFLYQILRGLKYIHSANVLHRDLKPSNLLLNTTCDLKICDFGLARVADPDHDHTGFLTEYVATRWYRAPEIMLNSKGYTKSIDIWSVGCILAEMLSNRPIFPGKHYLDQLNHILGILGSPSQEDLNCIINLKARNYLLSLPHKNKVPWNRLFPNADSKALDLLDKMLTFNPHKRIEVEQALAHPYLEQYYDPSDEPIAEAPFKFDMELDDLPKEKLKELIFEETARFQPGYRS

SMILES | fold change [1] | phospho-ERK1/2 band inhibition vs DMSO (stronger effect = higher value) [2]
CN(C(=O)CNC(=O)/C=C/c1cccc(Cl)c1)C1CCS(=O)(=O)CC1 | -2.02 | 50.5%
CN(C(=O)COC(=O)/C=C/c1cccc([N+](=O)[O-])c1)C1CCS(=O)(=O)C1 (stereo unspecified) | -1.63 | 38.6%
CN(C(=O)CNC(=O)/C=C/c1cccc(Cl)c1)C1CCS(=O)(=O)C1 (stereo unspecified) | -1.52 | 34.3%
